Experiment: Stability of JAK3 covalent inhibitors in human whole blood;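 further: parent compound remaining over incubation time quantified by LC-MS/MS as peak area ratio against an internal standard, using pooled K2-EDTA blood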
Assay type: in vitro ADME
Details: both sexes, whole blood, 37° C., read-out: Human blood stability t1/2
From the text: Stability of JAK3 Covalent Inhibitors in Rat and Human Whole Blood
Rat blood was collected from 3 male Sprague-Dawley rats (200-250 g, Charles River Laboratories) and pooled for each study. Human blood was collected from one male and one female healthy subjects at the Occupational Health & Wellness Center at Pfizer, Groton, CT and pooled for each study. Both rat and human blood was collected freshly into K2-EDTA tubes and kept on ice. An aliquot of the blood was transferred to microtubes and pre-warmed for 10 min at 37° C. using a heat block. […] An aliquot of the incubation mixture was removed at designated time points during the course of the incubation, mixed with an aliquot of acetonitrile containing an internal standard, vortexed and centrifuged. The resulting supernatants were removed and subjected to LC-MS/MS analyses to determine parent compound concentrations. Peak area ratios of the parent compound vs the internal standard were used to determine the % of parent compound remaining vs incubation time.

Row | half-life at 1 μM [h] | SMILES
1 | > 6 | C=CC(=O)N1CC[C@H](Nc2cnc3[nH]cc(C(=O)NC(C)C)c3n2)[C@H](OC)C1 [Example 317, 2-{[(3R,4S)-1-acryloyl-3-methoxypiperidin-4-yl]amino}-N-(propan-2-yl)-5H-pyrrolo[2,3-b]pyrazine-7-carboxamide]
2 | 0.583 | C=CC(=O)N1C[C@@H](C#N)C[C@@H](Nc2ncnc3[nH]ccc23)C1 [Example 58, (3S,5R)-5-((7H-pyrrolo[2,3-d]pyrimidin-4-yl)amino)-1-acryloylpiperidine-3-carbonitrile]
3 | > 6 | C=CC(=O)N1CCC(Nc2cnc3[nH]cc(C(=O)N[C@@H](C)COC)c3n2)CC1 [Example 277, 2-[(1-acryloylpiperidin-4-yl)amino]-N-[(2S)-1-methoxypropan-2-yl]-5H-pyrrolo[2,3-b]pyrazine-7-carboxamide]
4 | > 6 | C=CC(=O)N1CCC[C@@H](Nc2ncnc3[nH]cc(F)c23)C1 [Example 42, 1-{(3R)-3-[(5-fluoro-7H-pyrrolo[2,3-d]pyrimidin-4-yl)amino]piperidin-1-yl}prop-2-en-1-one]
5 | 3.17 | C=CC(=O)N1CC[C@@H](Nc2cnc3[nH]cc(C(=O)NC(C)C)c3n2)[C@@H](F)C1 [Example 320, 2-{[(3S,4R)-1-acryloyl-3-fluoropiperidin-4-yl]amino}-N-(propan-2-yl)-5H-pyrrolo[2,3-b]pyrazine-7-carboxamide]
6 | > 6 | C=CC(=O)N1CCC[C@@H](Nc2ncnc3[nH]cc(-c4cnn(C)c4)c23)C1 [Example 28, 1-[(3R)-3-{[5-(1-methyl-1H-pyrazol-4-yl)-7H-pyrrolo[2,3-d]pyrimidin-4-yl]amino}piperidin-1-yl]prop-2-en-1-one]
7 | 5.26 | C=CC(=O)N1CCC[C@@H](Nc2ccnc3[nH]cc(C)c23)C1 [Example 47, 1-{(3R)-3-[(3-methyl-1H-pyrrolo[2,3-b]pyridin-4-yl)amino]piperidin-1-yl}prop-2-en-1-one]
8 | 3.75 | C=CC(=O)N1CCC(Nc2cnc3[nH]cc(C(=O)NC(C)(C)CC)c3n2)CC1 [Example 276, 2-[(1-acryloylpiperidin-4-yl)amino]-N-(2-methylbutan-2-yl)-5H-pyrrolo[2,3-b]pyrazine-7-carboxamide]
9 | > 6 | C=CC(=O)N1CCC(Nc2cnc3[nH]cc(-c4cnc(OC)nc4)c3n2)CC1 [Example 210, 1-(4-{[7-(2-methoxypyrimidin-5-yl)-5H-pyrrolo[2,3-b]pyrazin-2-yl]amino}piperidin-1-yl)prop-2-en-1-one]
10 | 3.2 | C=CC(=O)N1CCC[C@@H](Nc2ncnc3[nH]cc(Cl)c23)C1 [Example 3, (R)-1-(3-((5-chloro-7H-pyrrolo[2,3-d]pyrimidin-4-yl)amino)piperidin-1-yl)prop-2-en-1-one]
11 | 2.8 | C=CC(=O)N1CC[C@@H]2OCCN(c3ncnc4[nH]ccc34)[C@@H]2C1 [Example 90, 1-[(4aR,8aS)-4-(7H-Pyrrolo[2,3-d]pyrimidin-4-yl)hexahydro-2H-pyrido[4,3-b][1,4]oxazin-6(5H)-yl]prop-2-en-1-one]
12 | 1.35 | C=CC(=O)N1C[C@H](Nc2ncnc3[nH]ccc23)C[C@H](N(C)C)C1 [Example 57, 1-((3R,5S)-3-((7H-Pyrrolo[2,3-d]pyrimidin-4-yl)amino)-5-(dimethylamino)piperidin-1-yl)prop-2-en-1-one]
13 | > 6 | C=CC(=O)N1CCC(Nc2cnc3[nH]cc(-c4ccc(F)nc4)c3n2)CC1 [Example 207, 1-(4-{[7-(6-fluoropyridin-3-yl)-5H-pyrrolo[2,3-b]pyrazin-2-yl]amino}piperidin-1-yl)prop-2-en-1-one]
14 | > 6 | C=CC(=O)N1CC[C@@H](CNc2cnc3[nH]cc(C(=O)NC(C)C)c3n2)C1 [Example 191, 2-({[(3S)-1-acryloylpyrrolidin-3-yl]methyl}amino)-(N-propan-2-yl)-5H-pyrrolo[2,3-b]pyrazine-7-carboxamide]
15 | > 6 | C=CC(=O)N1CC[C@@H](Nc2cnc3[nH]cc(C(=O)NC(C)C)c3n2)[C@@H](OC)C1 [Example 302, 2-{[(3S,4R)-1-acryloyl-3-methoxypiperidin-4-yl]amino}-N-(propan-2-yl)-5H-pyrrolo[2,3-b]pyrazine-7-carboxamide]
16 | > 5.85 | C#CCNC(=O)c1c[nH]c2ncc(NC3CCN(C(=O)C=C)CC3)nc12 [Example 343, 2-((1-Acryloylpiperidin-4-yl)amino)-N-(prop-2-yn-1-yl)-5H-pyrrolo[2,3-b]pyrazine-7-carboxamide]
17 | > 6 | C=CC(=O)N1CCC(Nc2cnc3[nH]cc(C(=O)NCCC(F)(F)F)c3n2)CC1 [Example 246, 2-[(1-acryloylpiperidin-4-yl)amino]-N-(3,3,3-trifluoropropyl)-5H-pyrrolo[2,3-b]pyrazine-7-carboxamide]
18 | > 6 | C=CC(=O)N1CCC[C@@H](Nc2ncnc3[nH]cc(-c4ccc(OCC)nc4)c23)C1 [Example 33, 1-[(3R)-3-{[5-(6-ethoxypyridin-3-yl)-7H-pyrrolo[2,3-d]pyrimidin-4-yl]amino}piperidin-1-yl]prop-2-en-1-one]
19 | 5.95 | C=CC(=O)N1CC[C@@H](Nc2cnc3[nH]cc(C(=O)NC(C)C)c3n2)[C@H](OC)C1 [Example 305, 2-{[(3R,4R)-1-acryloyl-3-methoxypiperidin-4-yl]amino}-N-(propan-2-yl)-5H-pyrrolo[2,3-b]pyrazine-7-carboxamide]
20 | 4.33 | C=CC(=O)N1CCC(Nc2cnc3[nH]cc(C(=O)NCC4CC(F)(F)C4)c3n2)CC1 [Example 238, 2-[(1-acryloylpiperidin-4-yl)amino]-N-[(3,3-difluorocyclobutyl)methyl]-5H-pyrrolo[2,3-b]pyrazine-7-carboxamide]
21 | 4.22 | C=CC(=O)N1C[C@H](C#N)C[C@@H](Nc2ncnc3[nH]ccc23)C1 [Example 6, (3R,5R)-5-((7H-pyrrolo[2,3-d]pyrimidin-4-yl)amino)-1-acryloylpiperidine-3-carbonitrile]
22 | 3.51 | C=CC(=O)N1C[C@H](Nc2ncnc3[nH]ccc23)C[C@H](OC)C1 [Example 19, 1-((3R,5S)-3-((7H-Pyrrolo[2,3-d]pyrimidin-4-yl)amino)-5-methoxypiperidin-1-yl)prop-2-en-1-one]
23 | > 5.31 | C=CC(=O)N1C[C@H](Nc2ncnc3[nH]cc(Cl)c23)CC[C@@H]1C [Example 18, 1-((2S,5R)-5-((5-Chloro-7H-pyrrolo[2,3-d]pyrimidin-4-yl)amino)-2-methylpiperidin-1-yl)prop-2-en-1-one]
24 | 3.35 | C=CC(=O)N1CCC(Nc2cnc3[nH]cc(C(=O)N[C@@H]4CCC[C@@H]4F)c3n2)CC1 [Example 251, 2-[(1-acryloylpiperidin-4-yl)amino]-N-[(1R,2S)-2-fluorocyclopentyl]-5H-pyrrolo[2,3-b]pyrazine-7-carboxamide]
25 | > 5.82 | C=CC(=O)N1C[C@H](Nc2ccnc3[nH]cc(C#N)c23)CC[C@@H]1C [Example 165, 4-{[(3R,6S)-1-Acryloyl-6-methylpiperidin-3-yl]amino}-1H-pyrrolo[2,3-b]pyridine-3-carbonitrile]
26 | 4.8 | C=CC(=O)N1CCC(Nc2cnc3[nH]cc(C(=O)N[C@H](C)COC)c3n2)CC1 [Example 268, 2-[(1-acryloylpiperidin-4-yl)amino]-N-[(2R)-1-methoxypropan-2-yl]-5H-pyrrolo[2,3-b]pyrazine-7-carboxamide]
